Laboratory results published in a melting point compilation (Tetko et al.; mined from patent text by program, amines drawn as free bases though some values may be those of a salt).

| SMILES | melting point [°C] |
| --- | --- |
| CN1CCN(c2ccc(S(=O)(=O)c3ccccc3)c(N)c2)CC1 | 90 to 93 |
| Cn1c([N+](=O)[O-])cnc1-c1nnc2cccnn12 | 235 to 237 |
| COc1cc(OC)c(N=C=O)c(OC)c1 | 67 to 70 |
| CNC(=O)c1ccc(-c2ccc3nnn(C(C)(C)c4ccc5ncccc5c4)c3n2)cc1F | 171 to 173 |
| O=C(NCCNCC(O)COc1ccc(OCCOCC2CC2)cc1)N1CCOCC1 (stereo not given) | 80 to 81 |
| Cc1cccc(NC(=O)NCC(=O)N(CC(=O)N(C)c2ccccc2)c2ccccc2)c1 | 168 |
| O=C(C=Cc1cccnc1)NCCCCC1CCN(C(=O)c2cccc3c2-c2ccccc2C3=O)CC1 | 80 to 82 |
| COC(=O)Cc1ccc(OCC(C)NCC(O)c2cccc(Cl)c2)c(Cl)c1 (stereo not given) | 83 to 103 |
| COc1ccc(-c2cc(CN(C)C)c(=O)n(Cc3ccc(F)c(F)c3)n2)cc1F | 130 |
| O=c1c2cc(Oc3ccc(Cl)cc3)ccc2cnn1Cc1cccnc1 | 150 to 152 |
| COC(=O)c1cc(C)ccc1NC(=O)N(C)C | 92 |
| COC(=O)c1ccc(Cl)c(C2(O)C(=O)N(Cc3ccc(OC)cc3OC)c3ccccc32)c1 (stereo not given) | 172 |
| O=C(O)COc1ccc2cc(-c3cnc(-c4cn(Cc5ccccc5)c5ccccc45)o3)ccc2c1 | 238 to 242 |
| Cc1c(SCCCN2CCN(Cc3ccc(Cl)s3)CC2)ccnc1CSc1nc2cc(F)c(F)cc2[nH]1 | 79 to 82 |
| CCCc1c(OCCCCCCc2cccc(OCCCCCCCCC(=O)O)c2CCC(=O)O)ccc2c1OCCC2=O | 63 to 65 |
| O=c1[nH]c2ncc(-c3ccc(-c4nc5ccccc5[nH]4)cc3)nc2n1CC1CCOCC1 | > 300 |
| CC(C)(C)C(C(N)=O)c1cccc(Nc2ncnc3[nH]cc(C(=O)c4ccccc4)c23)c1 (stereo not given) | 288 to 290 |
| CCCCn1c(NNC(=S)NC(C)=O)cc(=O)n(CCC)c1=O | 149 to 152 |
| CCOC(=O)CCCNC1=NS(=O)(=O)c2ccccc21 | 125 to 127 |
| CCc1cc2c(Cl)cc(F)c(-n3c(=O)cc(C(F)(F)F)n(N)c3=O)c2o1 | 145 to 147 |
| CCCCN1CCc2ccccc2C1CNC(=O)c1cc(OC)c(OC)c(OC)c1 (stereo not given) | 81 to 83 |
| CN1CCN(c2cccc3c2C[C@H](NC(=O)c2ccc(N4CCN(CCO)CC4)cc2)CO3)CC1 | 211 to 212 |
| Cc1ccc(C=CC(=O)NC(C)c2ccc(NS(C)(=O)=O)c(F)c2)cc1C (stereo not given) | 212 to 213 |
| CCCCCSc1cc(C(=O)O)cc(N)c1Oc1ccccc1 | 98 |
| C=CCOc1cc(-n2c(OC)nc(C(F)(F)F)cc2=O)c(F)cc1Br | 107 to 110 |

| SMILES | melting point [°C] |
| --- | --- |
| Cc1oc2ccccc2c1C(=O)N(Cc1ccccc1)Cc1ccc2c(Br)c(O)ccc2c1 | 184 to 185 |
| CC(=O)c1ccnc(N(C)C)c1 | 37 to 42 |
| O=C(/C=C/c1ccc(O)cc1)C(F)(F)F | 106 to 107 |
| CCOc1ccc2c(c1)C(Cl)Cc1ccc(F)cc1S2 (stereo not given) | 110 to 111 |
| O=C(NC(=O)c1c(F)cccc1F)Nc1ccc(Oc2cccc3ccccc23)nc1 | 224 |
| Nc1ncnn1C(=S)NC1CCCCC1 | 168 to 170 |
| CSc1ncc(S(=O)(=O)NC(C)(C)C)c(Cl)n1 | 117 to 118 |
| CC=CCn1c(C)c(C)c2cnnc(CCc3ccccc3)c21 | 98 to 106 |
| CC(=O)Nc1ccc2c(c1)S(=O)(=O)NCN2C1CC1 | 230 to 232 |
| COc1ccc(CSc2nc(NC(CO)CO)c3ncc(=O)[nH]c3n2)cc1Cl | 209 to 211 |
| COCc1cc(NCc2ccccc2C)c2ccccc2n1 | 194 to 195 |
| CCOC(=O)C(Cc1ccc(OCC=C(C)c2ccc(-c3ccc(C(C)=CCOc4ccc(CC(OCC)C(=O)OCC)cc4)cc3)cc2)cc1)OCC (stereo not given) | 100 to 106 |
| CCCCCCCCc1ccc(OCC(=O)Cn2cc(C(=O)O)c3ccccc32)cc1 | 182 to 183 |
| CC(=O)Nc1cc(N2CCCC2)c2c(Cl)ccc3c2c1C(=O)N(O)C3=O | 152 to 154 |
| COc1ccc(S(=O)(=O)C(CC=C(C)C)(Cc2cccnc2)C(=O)O)cc1 (stereo not given) | 117 to 119 |
| CCc1nc(C)cn1-c1cc2c(cc1Cl)[nH]c(=O)c1n[nH]c(=O)n12 | 273 to 275 |
| COC(=O)c1ccc(C(=O)N2CCN(c3ncccc3[N+](=O)[O-])CC2)cc1 | 149 to 152 |
| COc1ccc([N+](=O)[O-])c(CCc2cc(OC)ccc2[N+](=O)[O-])c1 | 193 to 195 |
| CNS(=O)(=O)NC(C)C | 50 to 52 |
| CNC(=O)CNc1cccc2c1C(=O)N(C1CCC(=O)NC1=O)C2=O (stereo not given) | 210 to 212 |
| COc1cc(C)nc(N(C)C(=O)NS(=O)(=O)c2c(Cl)cccc2Cl)n1 | 170 to 171 |
| CS(=O)(=O)c1ccc(C(=O)O)c(Cl)c1CO | 240 to 245 |
| CCN(CC)CCNC(=O)c1cc(Cl)c(N)cc1OCCO | 144 to 146 |
| CC(C)(C)C(NC(=O)c1ccc(Cl)cc1)Nc1c(Nc2ccc(Cl)nc2)c(=O)c1=O (stereo not given) | 258 to 259 |
| COc1ccccc1CNC(=O)c1[nH]c2ccc(Cl)cc2c1S(=O)(=O)c1ccccc1 | 235 to 237 |
